Results on 17 molecules are retold here after patent US6844443B2, “Benzimidazole derivatives, their production and use” (Takeda Pharmaceutical Company, Ltd., priority 1990, dated 2005).

As usually defined, the melting point is the temperature of the solid-liquid transition.

Data set [1] can be described thus: Heat stability of solid forms (Experimental Example 1). The data set is classed as physicochemical. To be noted: solid form of 1-(cyclohexyloxycarbonyloxy)ethyl ester. From the text: 1-(Cyclohexyloxycarbonyloxy)ethyl 2-ethoxy-1-[[2′-(1 H-tetrazol-5-yl)biphenyl-4-yl]methyl]benzimidazole-7-carboxylate is usually purified by column chromatography on silica gel and the eluted fraction is concentrated to dryness to give amorphous powders. […] For solving this problem, the present inventors made extensive experiments on crystallization of the subject compound and discovered C-type crystalline form. […] The C-type crystal of the title compound has approximately the following lattice spacings: […]

A further data set deals with T1, A II receptor (Bos taurus, UniProt P25104).
T1 construct: An A II receptor membrane fraction was prepared from bovine adrenal cortex; from tissue; host or cells: bovine adrenal cortex membrane fraction
T1 sequence (P25104 1-359): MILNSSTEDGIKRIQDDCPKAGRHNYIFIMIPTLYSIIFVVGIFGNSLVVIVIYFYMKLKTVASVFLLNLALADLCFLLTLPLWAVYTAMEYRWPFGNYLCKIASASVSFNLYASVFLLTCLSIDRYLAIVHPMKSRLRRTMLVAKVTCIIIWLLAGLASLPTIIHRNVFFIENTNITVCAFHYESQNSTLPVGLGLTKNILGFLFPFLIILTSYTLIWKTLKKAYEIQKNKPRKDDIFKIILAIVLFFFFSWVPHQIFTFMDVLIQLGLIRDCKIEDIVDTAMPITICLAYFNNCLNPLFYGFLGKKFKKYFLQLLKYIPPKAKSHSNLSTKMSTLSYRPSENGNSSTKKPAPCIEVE
In words: Inhibition of binding of angiotensin II to angiotensin receptor (radioreceptor assay). More on the design: species or system bovine; Radioreceptor Assay 1 × 10^−7M / Radioreceptor Assay 1 × 10^−6M: unit not given here. As for the experimental part: An experiment of inhibition on the binding of angiotensin II (A II) to A II receptor was conducted by modifying the method of Douglas et al. [Endocrinology, 102, 685-696 (1978)]. An A II receptor membrane fraction was prepared from bovine adrenal cortex.
The compound of the present invention (10 ^−6M or 10^−7M) and ^125I-angiotensin II (^125I-A II) (1.85 kBq/50 μl ) were added to the receptor membrane fraction, and the mixture was incubated at room temperature for one hour. The receptor-bound and free ^125I-A II were separated through a filter (Whatman GF/B filter), and the radioactivity of ^125I-A II bound to the receptor was measured.

The subject of data set [2] is A II-induced pressor action. The data set can be described thus: Inhibitory effect on pressor action of A II after oral administration. The class given is in vivo, Jcl: SD rats. As for the experimental part: Jcl: SD rats (9 week old, male) were employed. On the previous day of the experiment, these animals were applied with cannulation into the femoral artery and vein under anesthesia with pentobarbital Na. The animals were fasted but allowed to access freely to drinking water until the experiment was started. Just on the day of conducting the experiment, the artery cannula was connected with a blood-pressure transducer, and the average blood pressure was recorded by means of polygraph. Before administration of the drug, the pressor action due to intravenous administration of A II (100 ng/kg) as the control was measured. The drugs were orally administered, then, at each point of the measurement, A II was administered intravenously, and the pressor action was similarly measured. By comparing the pressor action before and after administration of the drug, the percent inhibition by the drug on A II-induced pressor action was evaluated.

Structures are written as SMILES.

In turn, `CCOc1nc2cccc(C(=O)OC(C)OC(=O)OC(C)C)c2n1Cc1ccc(-c2ccccc2)c(-c2nnn[nH]2)c1` (stereo not drawn) [Working Example 56, 1-(Isopropoxycarbonyloxy)ethyl 2-ethoxy-1-[[2-(1 H-tetrazol-5-yl)biphenyl-4-yl]methyl]benzimidazole-7-carboxylate] gave a melting point of 74 to 76 °C. Still for that read-out and setting: then `CCOc1nc2cccc(C(=O)OCc3oc(=O)oc3C)c2n1Cc1ccc(-c2ccccc2-c2nnn[nH]2)cc1` [Working Example 49, (5-Methyl-2-oxo-1,3-dioxolen-4-yl)methyl 2-ethoxy-1-[[2′-(1 H-tetrazol-5-yl)biphenyl-4-yl]methyl]benzimidazole-7-carboxylate], with 122 to 125 °C (dec.). Still for that read-out and setting: then `CCOc1nc2cccc(C(=O)OCOC(C)=O)c2n1Cc1ccc(-c2ccccc2-c2nnn[nH]2)cc1` [Working Example 50, Acetoxymethyl 2-ethoxy-1-[[2′-(1 H-tetrazol-5-yl)biphenyl-4-yl]methyl]benzimidazole-7-carboxylate], with 152 to 154 °C (dec.). Same read-out and setting: then `CCOc1nc2cccc(C(=O)OCOC(=O)C3CCCC3)c2n1Cc1ccc(-c2ccccc2-c2nnn[nH]2)cc1` [Working Example 61, Cyclopentylcarbonyloxymethyl 2-ethoxy-1-[[2′-(1 H-tetrazol-5-yl)biphenyl-4-yl]methyl]benzimidazole-7-carboxylate], with 136 to 138 °C; and `CCOc1nc2cccc(C(=O)OCOC(=O)C3CCCCC3)c2n1Cc1ccc(-c2ccccc2-c2nnn[nH]2)cc1` [Working Example 58, Cyclohexylcarbonyloxymethyl 2-ethoxy-1-[[2′-(1 H-tetrazol-5-yl)biphenyl-4-yl]methyl]benzimidazole-7-carboxylate], with 140 to 142 °C. As to `CCOc1nc2cccc(C(=O)OC(C)OC(=O)OC3CCCCC3)c2n1Cc1ccc(-c2ccccc2-c2nnn[nH]2)cc1` (stereo not drawn) [C-type crystal], the “heat stability of solid form” value in data set [1] is “stable by heat”.

In the case of `CCOc1nc2cccc(C(=O)OCOC(=O)CC)c2n1Cc1ccc(-c2ccccc2-c2nnn[nH]2)cc1` [Working Example 51, Propionyloxymethyl 2-ethoxy-1-[[2′-(1 H-tetrazol-5-yl)-biphenyl-4-yl]methyl]benzimidazole-7-carboxylate], the melting point is 145 to 150 °C (dec.). `CCOc1nc2cccc(C(=O)OC(C)OC(C)=O)c2n1Cc1ccc(-c2ccccc2-c2nnn[nH]2)cc1` (stereo not drawn) [Working Example 55, 1-Acetoxyethyl 2-ethoxy-1-[[2′-(1 H-tetrazol-5-yl)biphenyl-4-yl]methyl]benzimidazole-7-carboxylate] showed a melting point of 105 to 107 °C. With `CCOC(=O)OC(C)OC(=O)c1cccc2nc(OCC)n(Cc3ccc(-c4ccccc4-c4nnn[nH]4)cc3)c12` (stereo not drawn) [Working Example 54, 1-(Ethoxycarbonyloxy)ethyl 2-ethoxy-1-[[2′-(1 H-tetrazol-5-yl)-biphenyl-4-yl]methyl]benzimidazole-7-carboxylate], the melting point is 85 to 87 °C. The same measure, in the same setting: then `CCOc1nc2cccc(C(=O)OCOC(=O)C(C)C)c2n1Cc1ccc(-c2ccccc2-c2nnn[nH]2)cc1` [Working Example 53, Isobutyryloxymethyl 2-ethoxy-1-[[2′-(1 H-tetrazol-5-yl)biphenyl-4-yl]methyl]benzimidazole-7-carboxylate], with 143 to 145 °C.

As for `CCNc1nc2cccc(C(=O)OC(C)OC(=O)OC3CCCCC3)c2n1Cc1ccc(-c2ccccc2-c2nnn[nH]2)cc1` (stereo not drawn) [Working Example 63, 1-(Cyclohexyloxycarbonyloxy)ethyl 2-ethylamino-1-[[2′-(1 H-tetrazol-5-yl)biphenyl-4-yl]methyl]benzimidazole-7-carboxylate], the melting point lay within 149 to 152 °C.

On to `CCOc1nc2cccc(C(=O)OC(C)OC(=O)OC3CCCCC3)c2n1Cc1ccc(-c2ccccc2-c2nnn[nH]2)cc1` (stereo not drawn) [amorphous powders, 1-(Cyclohexyloxycarbonyloxy)ethyl 2-ethoxy-1-[[2′-(1 H-tetrazol-5-yl)biphenyl-4-yl]methyl]benzimidazole-7-carboxylate], for which the “heat stability of solid form” value in data set [1] is on record as “unstable by heat”. In the case of `CCOc1nc2cccc(C(=O)OCOC(=O)C3CCCCC3)c2n1Cc1ccc(-c2ccccc2-c2nnn[nH]2)cc1` [Example 58], the inhibition at 1 µM at A II receptor (1 h, inhibition of 125I-A II binding, compound 1 × 10^−6M, bovine adrenal cortex membrane fraction) was 84%. For the same molecule, the inhibition at 0.1 µM on A II receptor (1 h, read-out: Radioreceptor Assay 1 × 10^−7M) was 55%. The inhibition in vivo at 3 mg/kg in data set [2] (Rattus norvegicus, po, read-out: Pressor Response to A II (p.o.) 3 mg/kg) was ≥ 70%. `CCNc1nc2cccc(C(=O)OCOC(=O)C(C)(C)C)c2n1Cc1ccc(-c2ccccc2-c2nnn[nH]2)cc1` [Working Example 62, Pivaloyloxymethyl 2-ethylamino-1-[[2′-(1 H-tetrazol-5-yl)biphenyl-4-yl]methyl]benzimidazole-7-carboxylate]: the melting point lay within 130 to 135 °C.

In turn, `CCOc1nc2cccc(C(=O)OCOC(=O)/C=C/c3ccccc3)c2n1Cc1ccc(-c2ccccc2-c2nnn[nH]2)cc1` [Working Example 60, (E)-cinnamoyloxymethyl 2-ethoxy-1-[[2′-(1 H-tetrazol-5-yl)biphenyl-4-yl]methyl]benzimidazole-7-carboxylate] returned a melting point of 146 to 147 °C. Consider `CCOc1nc2cccc(C(=O)OC(C)OC(=O)OC3CCCCC3)c2n1Cc1ccc(-c2ccccc2-c2nnn[nH]2)cc1` (stereo not drawn) [Example 44], for which the “Radioreceptor Assay 1 × 10^−6M” value at A II receptor (inhibition of 125I-A II binding, compound 1 × 10^−6M, bovine adrenal cortex membrane fraction) was found to be 77. At A II receptor (inhibition of 125I-A II binding, compound 1 × 10^−7M, bovine adrenal cortex membrane fraction), the “Radioreceptor Assay 1 × 10^−7M” value is given as 32. For the same molecule, the “Pressor Response to A II (p.o.) 3 mg/kg” value in data set [2] (percent inhibition of pressor action of i.v. A II (100 ng/kg), 3 mg/kg p.o., rats) is given as “+++ (+++ ≧ 70%)”. Molecule `CCCC(=O)OCOC(=O)c1cccc2nc(OCC)n(Cc3ccc(-c4ccccc4-c4nnn[nH]4)cc3)c12` [Working Example 52, Butyryloxymethyl 2-ethoxy-1-[[2′-(1 H-tetrazol-5-yl)biphenyl-4-yl]methyl]benzimidazole-7-carboxylate] gave a melting point of 96 to 100 °C.
